Experimental data reported in patent US20260224588A1, “BENZODIAZEPINONE-DERIVED INHIBITORS OF EGFR AND HER2” (The Research Foundation for the State University of New York, priority 2023, published 2026).

Tests used:
Format in all cases: binding
CDK9 = CDK9 (Homo sapiens, UniProt P50750); assay: KINOMEscan; details: 1 μM of compound 4; read-out: POC
DAPK2 = DAPK2 (Homo sapiens, UniProt Q9UIK4); assay: KINOMEscan; details: 1 μM of compound 4; read-out: POC
HIPK2 = target: T1, HIPK2 (Homo sapiens, UniProt Q9H2X6); assay: KINOMEscan; details: 1 μM of compound 4; read-out: POC
T1 construct: purchased Eurofins DiscoverX Corporation

SYK = target: T2, SYK (Homo sapiens, UniProt P43405); assay: KINOMEscan; details: 1 μM of compound 4; read-out: POC
T2 construct: purchased Eurofins DiscoverX Corporation

JNK1 = JNK1 (Homo sapiens, UniProt P45983); assay: KINOMEscan; details: 1 μM of compound 4; read-out: POC
[1] = target: T3, RPS6KA4(Kin.Dom.1-N-terminal) (Homo sapiens, UniProt O75676); assay: KINOMEscan; details: 1 μM of compound 4; read-out: POC
T3 construct: RPS6KA4(Kin.Dom.1-N-terminal); purchased Eurofins DiscoverX Corporation (KINOMEscan screening service)

FLT1 = target: T4, FLT1 (Homo sapiens, UniProt P17948); assay: KINOMEscan; details: 1 μM of compound 4; read-out: POC
T4 construct: purchased Eurofins DiscoverX Corporation

LRRK2 = LRRK2 (Homo sapiens, UniProt Q5S007); assay: KINOMEscan; details: 1 μM of compound 4; read-out: POC
ANKK1 = ANKK1 (Homo sapiens, UniProt Q8NFD2); assay: KINOMEscan; details: 1 μM of compound 4; read-out: POC
IGF1R = IGF1R (Homo sapiens, UniProt P08069); assay: KINOMEscan; details: 1 μM of compound 4; read-out: POC
CIT = CIT (Homo sapiens, UniProt O14578); assay: KINOMEscan; details: 1 μM of compound 4; read-out: POC
Chain of CIT (O14578 whole entry): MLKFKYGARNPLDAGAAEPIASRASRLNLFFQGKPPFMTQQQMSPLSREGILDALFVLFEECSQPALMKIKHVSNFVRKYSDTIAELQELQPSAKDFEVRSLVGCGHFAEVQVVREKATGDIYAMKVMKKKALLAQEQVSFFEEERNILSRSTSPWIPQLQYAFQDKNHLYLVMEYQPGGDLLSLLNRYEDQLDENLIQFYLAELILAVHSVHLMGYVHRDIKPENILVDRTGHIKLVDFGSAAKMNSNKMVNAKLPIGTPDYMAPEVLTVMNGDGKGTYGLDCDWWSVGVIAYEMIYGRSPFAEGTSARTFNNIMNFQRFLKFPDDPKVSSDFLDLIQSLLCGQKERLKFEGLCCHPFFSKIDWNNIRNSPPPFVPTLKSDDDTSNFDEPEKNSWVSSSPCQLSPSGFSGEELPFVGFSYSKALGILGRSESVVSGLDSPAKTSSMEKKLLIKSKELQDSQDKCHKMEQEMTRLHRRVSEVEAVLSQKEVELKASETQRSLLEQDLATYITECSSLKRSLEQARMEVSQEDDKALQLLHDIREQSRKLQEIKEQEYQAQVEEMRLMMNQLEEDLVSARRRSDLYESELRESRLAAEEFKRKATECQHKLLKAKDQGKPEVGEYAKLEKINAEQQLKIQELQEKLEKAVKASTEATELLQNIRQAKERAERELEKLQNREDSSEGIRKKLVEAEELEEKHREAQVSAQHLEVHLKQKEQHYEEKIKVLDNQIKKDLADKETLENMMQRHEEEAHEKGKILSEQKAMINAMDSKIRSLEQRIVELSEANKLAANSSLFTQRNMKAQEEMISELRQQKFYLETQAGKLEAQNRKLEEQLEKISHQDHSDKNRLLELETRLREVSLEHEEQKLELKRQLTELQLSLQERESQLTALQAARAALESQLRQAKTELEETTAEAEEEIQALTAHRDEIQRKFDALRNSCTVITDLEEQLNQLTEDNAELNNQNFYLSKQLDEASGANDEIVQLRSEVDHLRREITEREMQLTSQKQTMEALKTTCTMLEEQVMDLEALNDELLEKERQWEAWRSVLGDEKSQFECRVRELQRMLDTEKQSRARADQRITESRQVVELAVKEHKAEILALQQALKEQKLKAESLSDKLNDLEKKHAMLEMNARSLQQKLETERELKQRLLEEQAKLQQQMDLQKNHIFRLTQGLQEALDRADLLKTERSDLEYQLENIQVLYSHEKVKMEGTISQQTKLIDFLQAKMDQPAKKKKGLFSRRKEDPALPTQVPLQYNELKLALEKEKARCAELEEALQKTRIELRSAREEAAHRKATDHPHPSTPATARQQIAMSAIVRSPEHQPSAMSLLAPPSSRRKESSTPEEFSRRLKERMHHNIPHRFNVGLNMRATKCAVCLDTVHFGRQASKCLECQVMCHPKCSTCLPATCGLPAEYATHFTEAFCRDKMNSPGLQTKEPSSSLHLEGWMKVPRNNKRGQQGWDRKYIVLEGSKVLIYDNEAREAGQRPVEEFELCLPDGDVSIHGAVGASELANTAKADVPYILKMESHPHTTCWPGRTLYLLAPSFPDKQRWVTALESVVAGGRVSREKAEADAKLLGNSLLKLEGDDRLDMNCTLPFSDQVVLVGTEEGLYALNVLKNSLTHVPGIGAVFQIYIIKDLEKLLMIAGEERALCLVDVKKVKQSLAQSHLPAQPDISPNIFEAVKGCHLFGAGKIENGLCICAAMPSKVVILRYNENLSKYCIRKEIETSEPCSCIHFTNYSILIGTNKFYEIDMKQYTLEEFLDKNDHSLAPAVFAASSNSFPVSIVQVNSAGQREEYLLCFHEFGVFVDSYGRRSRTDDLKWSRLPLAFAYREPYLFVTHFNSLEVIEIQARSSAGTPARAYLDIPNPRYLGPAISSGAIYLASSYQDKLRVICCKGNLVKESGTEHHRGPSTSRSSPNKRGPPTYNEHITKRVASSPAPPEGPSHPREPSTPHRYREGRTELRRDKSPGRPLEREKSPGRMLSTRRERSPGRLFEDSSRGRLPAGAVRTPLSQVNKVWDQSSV

PIK4CB = PIK4CB (Homo sapiens, UniProt Q9UBF8); assay: KINOMEscan; details: 1 μM of compound 4; read-out: POC
RET(M918T) = target: T5, RET(M918T) (Homo sapiens, UniProt P07949, M918T); assay: KINOMEscan; details: 1 μM of compound 4; read-out: POC
T5 construct: purchased Eurofins DiscoverX Corporation (KINOMEscan screening service)

GSK3A = target: T6, GSK3A (Homo sapiens, UniProt P49840); assay: KINOMEscan; details: 1 μM of compound 4; read-out: POC
T6 construct: purchased Eurofins DiscoverX Corporation

SIK2 = target: T7, SIK2 (Homo sapiens, UniProt Q9H0K1); assay: KINOMEscan; details: 1 μM of compound 4; read-out: POC
T7 construct: purchased Eurofins DiscoverX (KINOMEscan service)

CDK5 = CDK5 (Homo sapiens, UniProt Q00535); assay: KINOMEscan; details: 1 μM of compound 4; read-out: POC
Chain of CDK5 (Q00535 whole entry): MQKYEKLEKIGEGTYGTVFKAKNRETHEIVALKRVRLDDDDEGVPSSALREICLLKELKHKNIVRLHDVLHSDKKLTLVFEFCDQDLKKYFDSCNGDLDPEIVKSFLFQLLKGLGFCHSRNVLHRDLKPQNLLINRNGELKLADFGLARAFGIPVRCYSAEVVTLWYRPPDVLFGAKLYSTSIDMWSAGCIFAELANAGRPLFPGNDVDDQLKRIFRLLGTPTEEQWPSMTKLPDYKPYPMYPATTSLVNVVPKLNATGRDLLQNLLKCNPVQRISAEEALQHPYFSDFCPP

MARK4 = MARK4 (Homo sapiens, UniProt Q96L34); assay: KINOMEscan; details: 1 μM of compound 4; read-out: POC
[2] = target: T8, ABL1(F317I)-nonphosphorylated (Homo sapiens, UniProt P00519, F317I); assay: KINOMEscan; details: 1 μM of compound 4; read-out: POC
T8 construct: purchased Eurofins DiscoverX Corporation

ACVR2B = ACVR2B (Homo sapiens, UniProt Q13705); assay: KINOMEscan; details: 1 μM of compound 4; read-out: POC
FGFR2 = target: T9, FGFR2 (Homo sapiens, UniProt P21802); assay: KINOMEscan; details: 1 μM of compound 4; read-out: POC
T9 construct: purchased Eurofins DiscoverX Corporation

SIK = target: T10, SIK (Homo sapiens, UniProt P57059); assay: KINOMEscan; details: 1 μM of compound 4; read-out: POC
T10 construct: purchased Eurofins DiscoverX (KINOMEscan service)

DAPK3 = DAPK3 (Homo sapiens, UniProt O43293); assay: KINOMEscan; details: 1 μM of compound 4; read-out: POC
PIK3CA(E545K) = PIK3CA(E545K) (Homo sapiens, UniProt P42336, E545K); assay: KINOMEscan; details: 1 μM of compound 4; read-out: POC
MAP3K15 = MAP3K15 (Homo sapiens, UniProt Q6ZN16); assay: KINOMEscan; details: 1 μM of compound 4; read-out: POC
MYLK2 = MYLK2 (Homo sapiens, UniProt Q9H1R3); assay: KINOMEscan; details: 1 μM of compound 4; read-out: POC
WEE1 = target: T11, WEE1 (Homo sapiens, UniProt P30291); assay: KINOMEscan; details: 1 μM of compound 4; read-out: POC
T11 construct: purchased Eurofins DiscoverX

WEE2 = target: T12, WEE2 (Homo sapiens, UniProt P0C1S8); assay: KINOMEscan; details: 1 μM of compound 4; read-out: POC
T12 construct: purchased Eurofins DiscoverX
T12 sequence (P0C1S8 whole entry): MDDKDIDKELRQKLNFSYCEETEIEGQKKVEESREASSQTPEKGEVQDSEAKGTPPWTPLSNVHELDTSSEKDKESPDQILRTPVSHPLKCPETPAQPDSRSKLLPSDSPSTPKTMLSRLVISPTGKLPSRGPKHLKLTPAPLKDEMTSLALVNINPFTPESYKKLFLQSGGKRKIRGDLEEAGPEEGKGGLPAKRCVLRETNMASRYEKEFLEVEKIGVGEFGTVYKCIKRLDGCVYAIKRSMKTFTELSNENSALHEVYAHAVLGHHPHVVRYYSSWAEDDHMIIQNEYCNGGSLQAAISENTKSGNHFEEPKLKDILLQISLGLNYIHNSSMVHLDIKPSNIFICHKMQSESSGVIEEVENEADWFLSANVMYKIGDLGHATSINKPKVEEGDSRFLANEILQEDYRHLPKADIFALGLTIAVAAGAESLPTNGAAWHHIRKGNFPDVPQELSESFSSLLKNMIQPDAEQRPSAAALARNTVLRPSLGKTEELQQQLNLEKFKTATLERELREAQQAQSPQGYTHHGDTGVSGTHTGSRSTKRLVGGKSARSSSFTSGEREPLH

468 kinases = assay: KINOMEscan selectivity screening; details: 1 μM
NEK2 = NEK2 (Homo sapiens, UniProt P51955); assay: KINOMEscan; details: 1 μM of compound 4; read-out: POC
Chain of NEK2 (P51955 whole entry): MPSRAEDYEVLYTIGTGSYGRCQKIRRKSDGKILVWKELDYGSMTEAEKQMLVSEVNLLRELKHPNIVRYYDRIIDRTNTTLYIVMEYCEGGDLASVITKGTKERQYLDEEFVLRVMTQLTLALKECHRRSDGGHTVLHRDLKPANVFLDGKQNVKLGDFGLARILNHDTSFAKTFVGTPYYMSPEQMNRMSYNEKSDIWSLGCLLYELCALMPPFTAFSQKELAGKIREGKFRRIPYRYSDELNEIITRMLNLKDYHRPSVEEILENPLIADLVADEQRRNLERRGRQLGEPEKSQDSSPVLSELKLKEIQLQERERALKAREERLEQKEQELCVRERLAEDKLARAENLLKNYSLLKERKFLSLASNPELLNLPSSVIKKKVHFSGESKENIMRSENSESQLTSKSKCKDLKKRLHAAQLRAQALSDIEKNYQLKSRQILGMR

EPHA1 = target: T13, EPHA1 (Homo sapiens, UniProt P21709); assay: KINOMEscan; details: 1 μM of compound 4; read-out: POC
T13 construct: purchased Eurofins DiscoverX (KINOMEscan service)
T13 sequence (P21709 26-976): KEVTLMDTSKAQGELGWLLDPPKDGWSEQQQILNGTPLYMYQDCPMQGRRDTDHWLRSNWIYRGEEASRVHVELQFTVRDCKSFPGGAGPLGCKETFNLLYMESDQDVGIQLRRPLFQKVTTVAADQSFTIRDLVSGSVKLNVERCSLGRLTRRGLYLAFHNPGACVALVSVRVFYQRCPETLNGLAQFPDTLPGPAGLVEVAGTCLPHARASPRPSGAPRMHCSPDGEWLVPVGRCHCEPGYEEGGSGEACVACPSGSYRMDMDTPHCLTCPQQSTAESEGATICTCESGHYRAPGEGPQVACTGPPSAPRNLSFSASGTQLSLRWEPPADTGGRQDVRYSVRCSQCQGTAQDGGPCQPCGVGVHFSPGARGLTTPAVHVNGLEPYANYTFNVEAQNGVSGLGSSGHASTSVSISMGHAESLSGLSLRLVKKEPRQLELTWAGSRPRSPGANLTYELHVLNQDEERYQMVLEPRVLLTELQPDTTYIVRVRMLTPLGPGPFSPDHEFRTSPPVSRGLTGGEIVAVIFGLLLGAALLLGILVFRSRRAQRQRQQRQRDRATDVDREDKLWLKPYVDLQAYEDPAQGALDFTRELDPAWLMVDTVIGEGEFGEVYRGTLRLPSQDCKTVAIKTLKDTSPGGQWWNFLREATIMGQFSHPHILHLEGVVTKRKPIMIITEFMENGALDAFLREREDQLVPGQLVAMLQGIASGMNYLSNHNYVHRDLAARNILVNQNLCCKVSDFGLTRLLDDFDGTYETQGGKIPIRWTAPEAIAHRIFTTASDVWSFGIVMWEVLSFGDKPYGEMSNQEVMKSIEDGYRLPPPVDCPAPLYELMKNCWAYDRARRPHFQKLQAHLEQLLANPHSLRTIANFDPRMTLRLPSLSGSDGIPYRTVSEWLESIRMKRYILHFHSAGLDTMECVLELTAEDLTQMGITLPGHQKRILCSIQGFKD

MKNK2 = MKNK2 (Homo sapiens, UniProt Q9HBH9); assay: KINOMEscan; details: 1 μM of compound 4; read-out: POC
CDK2 = CDK2 (Homo sapiens, UniProt P24941); assay: KINOMEscan; details: 1 μM of compound 4; read-out: POC
FLT3(D835H) = target: T14, FLT3(D835H) (Homo sapiens, UniProt P36888, D835H); assay: KINOMEscan; details: 1 μM of compound 4; read-out: POC
T14 construct: purchased Eurofins DiscoverX Corporation

WNK2 = target: T15, WNK2 (Homo sapiens, UniProt Q9Y3S1); assay: KINOMEscan; details: 1 μM of compound 4; read-out: POC
T15 construct: purchased Eurofins DiscoverX

PLK2 = PLK2 (Homo sapiens, UniProt Q9NYY3); assay: KINOMEscan; details: 1 μM of compound 4; read-out: POC
MRCKB = MRCKB (Homo sapiens, UniProt Q9Y5S2); assay: KINOMEscan; details: 1 μM of compound 4; read-out: POC
CDK8 = CDK8 (Homo sapiens, UniProt P49336); assay: KINOMEscan; details: 1 μM of compound 4; read-out: POC
PHKG2 = PHKG2 (Homo sapiens, UniProt P15735); assay: KINOMEscan; details: 1 μM of compound 4; read-out: POC
PDGFRA = target: T16, PDGFRA (Homo sapiens, UniProt P16234); assay: KINOMEscan; details: 1 μM of compound 4; read-out: POC
T16 construct: purchased Eurofins DiscoverX Corporation (KINOMEscan)

Chain of DAPK2 (Q9UIK4 whole entry): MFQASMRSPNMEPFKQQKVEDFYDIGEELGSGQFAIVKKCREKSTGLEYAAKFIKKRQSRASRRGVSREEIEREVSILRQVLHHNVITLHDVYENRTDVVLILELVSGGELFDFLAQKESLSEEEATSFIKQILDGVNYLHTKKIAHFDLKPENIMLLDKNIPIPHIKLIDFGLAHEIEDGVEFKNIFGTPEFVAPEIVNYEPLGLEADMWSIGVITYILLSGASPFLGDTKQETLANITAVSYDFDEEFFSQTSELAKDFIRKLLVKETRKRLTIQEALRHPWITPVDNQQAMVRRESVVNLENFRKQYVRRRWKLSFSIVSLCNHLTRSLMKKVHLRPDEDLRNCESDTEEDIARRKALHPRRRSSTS
Chain of CDK9 (P50750 whole entry): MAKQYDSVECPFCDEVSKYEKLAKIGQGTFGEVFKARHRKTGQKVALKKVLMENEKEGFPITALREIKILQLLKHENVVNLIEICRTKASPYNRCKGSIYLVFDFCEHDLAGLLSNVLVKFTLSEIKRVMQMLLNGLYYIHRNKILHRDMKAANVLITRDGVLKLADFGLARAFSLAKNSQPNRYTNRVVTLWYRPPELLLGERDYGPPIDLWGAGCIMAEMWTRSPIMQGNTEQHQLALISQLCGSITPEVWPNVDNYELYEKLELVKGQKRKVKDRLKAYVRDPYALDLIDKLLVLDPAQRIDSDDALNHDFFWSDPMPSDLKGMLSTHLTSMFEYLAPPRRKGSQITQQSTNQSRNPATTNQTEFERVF

Which results are given for `C=CC(=O)Nc1ccc(OC)c(Nc2cc(-c3[nH]c(CC)nc3-c3cccc(NC(=O)c4cccc5c4NC(=O)c4ccccc4N5)c3)ccn2)c1` [Compound 4, N-(3-(5-(2-((5-Acrylamido-2-methoxyphenyl)amino)pyridin-4-yl)-2-ethyl-1H-imidazol-4-yl)phenyl)-11-oxo-10,11-dihydro-5H-dibenzo[b,e][1,4]diazepine-9-carboxamide]?
remaining binding at 1 µM (CDK9): 100%; remaining binding at 1 µM (DAPK2): 100%; remaining binding at 1 µM (HIPK2): 100%; remaining binding at 1 µM (SYK): 63%; remaining binding at 1 µM (JNK1): 85%; remaining binding at 1 µM [1]: 96%; remaining binding at 1 µM (FLT1): 100%; remaining binding at 1 µM (LRRK2): 93%; remaining binding at 1 µM (ANKK1): 87%; remaining binding at 1 µM (IGF1R): 90%; remaining binding at 1 µM (CIT): 6.3%; remaining binding at 1 µM (PIK4CB): 93%; remaining binding at 1 µM (RET(M918T)): 99%; remaining binding at 1 µM (GSK3A): 65%; remaining binding at 1 µM (SIK2): 100%; remaining binding at 1 µM (CDK5): 100%; remaining binding at 1 µM (MARK4): 92%; remaining binding at 1 µM [2]: 40%; remaining binding at 1 µM (ACVR2B): 72%; remaining binding at 1 µM (FGFR2): 100%; remaining binding at 1 µM (SIK): 100%; remaining binding at 1 µM (DAPK3): 62%; remaining binding at 1 µM (PIK3CA(E545K)): 100%; remaining binding at 1 µM (MAP3K15): 74%; remaining binding at 1 µM (MYLK2): 84%; remaining binding at 1 µM (WEE1): 85%; remaining binding at 1 µM (WEE2): 98%; S (35) kinome selectivity (468 kinases): 0.084; remaining binding at 1 µM (NEK2): 98%; remaining binding at 1 µM (EPHA1): 100%; remaining binding at 1 µM (MKNK2): 100%; remaining binding at 1 µM (CDK2): 95%; remaining binding at 1 µM (FLT3(D835H)): 92%; remaining binding at 1 µM (WNK2): 62%; remaining binding at 1 µM (PLK2): 100%; remaining binding at 1 µM (MRCKB): 1.7%; remaining binding at 1 µM (CDK8): 81%; remaining binding at 1 µM (PHKG2): 73%; remaining binding at 1 µM (PDGFRA): 69%
